Data as given in US10028956B2, “Methods of treating various cancers using an AXL/cMET inhibitor in combination with other agents” (Ignyta, Inc., priority 2013, dated 2018).
Marks after values point to notes of the source that are not given here.

Tests used:
[1] = test system: MDA-MB-231-Leu orthotopic breast tumor xenografts; test: Metastases of MDA-MB-231-Leu orthotopic breast tumor xenografts; assay type: in vivo, mice; details: oral administration, 10 and 30 mg/kg qd
Method: The human breast cancer cell line MDA-MB-231-Leu-D3H2LN-luciferase expressing cell line was purchased from Caliper Life Sciences. This tumor cell line was generated by stable transfection of the firefly luciferase gene expressed from the SV40 promoter and further selected for its metastatic potential upon isolation from a spontaneous lymph node metastasis of MDA-MB-231-Luc cells in immune-compromised mice. The cells were grown in DMEM medium supplemented with 10% fetal bovine serum (FBS, Cat^# SH3007003, Hyclone, Logan, Utah). D-Luciferin firefly/potassium salt (Cat. # L-8220) was purchased from Biosynth International, Inc., Itasca, Ill.). Female nu/nu mice (6 to 8 weeks old) were purchased from Harlan Laboratories. […] Mouse body weights were measured on day 0 and then every 7 days, and bioluminescence image analysis performed at the end of the study using the Caliper Life Sciences (Xenogen) Spectrum imager as detailed in FIG. 6. Images of the primary tumor and potential metastatic tumors in lymph nodes were taken weekly, starting on day 7 post cell implantation. Prior to image acquisition, each mouse were give a 0.2 ml intra-peritoneal injection of D-Luciferin firefly/potassium salt and images were acquired 6-10 minutes post substrate administration. […] Counts were converted to average radiance or mean photon flux; expressed as photons per second (p/s). […]

[2] = test system: CTG-0159 primary NSCLC human TumorGraft; test: NSCLC TumorGraft model CTG-0159; assay type: in vivo, mice; details: CTG-0159, 14 days
Method: (§1) Methods (for the experiments shown in FIGS. 10 and 11) • Female immunocompromised nu/nu mice (Harlan) between 6-9 weeks of age were housed on irradiated papertwist-enriched ⅛″ corncob bedding (Sheperd) in individual HEPA ventilated cages (Innocage® IVC, Innovive USA) on a 12-hour light-dark cycle at 68-74° F. (20-23° C.) and 30-70% humidity. Animals were fed water ad libitum (reverse osmosis, 2 ppm Cl2) and an irradiated Test rodent diet (Teklad 2919) consisting of 19% protein, 9% fat, and 4% fiber. • Tumor Models: Champions TumorGraft models of NSCLC are owned by Champions Oncology. In this study, animals were implanted unilaterally on the right flank with tumor fragments harvested from host animals. […] Erlotinib (manufacturer: OSI Pharmaceuticals; National Drug Code: 50242-062-01; Lot #: US0002) was formulated using 100% PEG-400 as the vehicle according to manufacturer's specifications.
Efficacy measurements: Beginning Day 0, tumor dimensions were measured twice weekly by digital caliper (Fowler Ultra-Cal IV) and data including individual and mean estimated tumor volumes (Mean TV±SEM) were recorded for each group; tumor volume was calculated using the formula TV=width^2×length×0.52. At study completion, percent tumor growth inhibition (% TGI) values were calculated and reported for each treatment group (T) versus control (C) using initial (i) and final (f) tumor measurements by the formula: % TGI=1−Tf−Ti/Cf−C; single agent or combination therapies resulting in a TGI>50 at study completion are considered active in the tested model at the evaluated treatment regimen according to NCI guidelines. […] If the PR persisted until study completion, percent tumor regression (% TR) was determined using the formula: % TR=1−Tf/Ti×100; a mean value was calculated if multiple PR mice occurred in one group. […] Statistical differences in tumor volume were determined using a two-tailed One-Way Analysis of Variance (ANOVA) followed by the Dunett's multiple comparisons test comparing treated groups with control and combinations with standard agent alone when possible. […]

[3] = test system: 4T1-Luc2 murine mammary carcinoma cells; test: 4T1-Luc2 systemic dissemination; assay type: in vivo, mice
Method: The murine breast cancer cell line 4T1-luciferase tagged cell line generated by stable transfection of the firefly luciferase gene expressed from the SV40 promoter was purchased from Caliper Life Sciences. The cells were grown in DMEM medium supplemented with 10% fetal bovine serum (FBS, Cat^# SH3007003, Hyclone, Logan, Utah). D-Luciferin firefly/potassium salt (Cat. # L-8220) was purchased from Biosynth International, Inc., Itasca, Ill.). Female Balb-c mice (6-8 weeks) were purchased from Charles River laboratories. […] Two days later, the mouse body weights were measured twice a week and the mice were subjected for full body in vivo imaging thrice a week. Treatments were given for a total of 23 days, with 21 days post tumor cell seeding. Bioluminescence image analysis was performed at the end of the study using a Caliper Life Sciences (Xenogen) Spectrum in vivo imaging machine. Each cage of five mice was anesthetized using isofluorane and imaged for a series of time points from 0.5-5 minutes max. Image analysis was performed using Living Image Software (vs. 4.0, 2010) using subjective but equally sized gates or regions of interest (ROIs) overlaid on each animal image. Counts were converted to average radiance or mean photon flux; expressed as photons per second per cm2 of surface area, (p/s/cm2/sr). […]

[4] = Tolerability / body weight in the xenograft studies; assay type: in vivo; details: in all of the above studies
[5] = test system: CTG-0192 erlotinib-sensitive NSCLC TumorGraft; test: NSCLC TumorGraft model CTG-0192; assay type: in vivo, mice; details: for % Tumor Growth Inhibition: CTG-0192, 32 days
Method: as §1
Efficacy measurements: Beginning Day 0, tumor dimensions were measured twice weekly by digital caliper (Fowler Ultra-Cal IV) and data including individual and mean estimated tumor volumes (Mean TV±SEM) were recorded for each group; tumor volume was calculated using the formula TV=width^2×length×0.52. At study completion, percent tumor growth inhibition (% TGI) values were calculated and reported for each treatment group (T) versus control (C) using initial (i) and final (f) tumor measurements by the formula: % TGI=1−Tf−Ti/Cf−C; single agent or combination therapies resulting in a TGI>50 at study completion are considered active in the tested model at the evaluated treatment regimen according to NCI guidelines. Individual mice reporting a tumor volume ≤50% of the Day 0 measurement for two consecutive measurements over a seven day period were considered partial responders (PR). If the PR persisted until study completion, percent tumor regression (% TR) was determined using the formula: % TR=1−Tf/Ti×100; a mean value was calculated if multiple PR mice occurred in one group. Individual mice lacking palpable tumors (<4×4 mm^2 for two consecutive measurements over a seven day period) were classified as complete responders (CR); a CR that persisted until study completion was considered a tumor-free survivor (TFS). TFS animals are excluded from efficacy calculations. Statistical differences in tumor volume were determined using a two-tailed One-Way Analysis of Variance (ANOVA) followed by the Dunett's multiple comparisons test comparing treated groups with control and combinations with standard agent alone when possible. All data collected in this study was managed electronically and stored on a redundant server system.

For `COc1cc2nccc(Oc3ccc(NC(=O)c4cn(C(C)C)c(=O)n(-c5ccc(F)cc5)c4=O)cc3F)c2cc1OC` [CEP-40783, 3-(4-Fluorophenyl)-1-isopropyl-2,4-dioxo-1,2,3,4-tetrahydropyrimidine-5-carboxylic acid [4-(6,7-dimethoxyquinolin-4-yloxy)-3-fluorophenyl]-amide], which “spontaneous lymph node and pulmonary metastatic tumor burden” value [1] is on record?
The value was “efficacious in reducing spontaneous lymph node and pulmonary metastatic tumor burden”.

What about the “% Tumor Growth Inhibition” value ([2]; 10 mg/kg po/qd) of the same compound?
Its value is 46%*.

And the “% Tumor Growth Inhibition” value ([2]; 30 mg/kg po/qd)?
The value was 66%*†.

And the “systemic 4T1 mammary tumor dissemination” value ([3]; 1 mg/kg po qd)?
Its value is “significant, albeit of lesser magnitude, reduction”.

And the “systemic 4T1 mammary tumor dissemination” value ([3]; 10 mg/kg and 30 mg/kg po qd)?
The value was “highly significant reductions”.

What about the “tolerability, body weight” value [4] of the same compound?
Its value is “well tolerated with no compound-related body weight loss”.

What about the “acquired resistance during the treatment phase” value ([5]; CTG-0192) of the same compound?
Its value is “no acquired resistance”.

What about the “% Tumor Growth Inhibition” value ([5]; 10 mg/kg po/qd) of the same compound?
The value was 85%*.

And the “% Tumor Growth Inhibition” value ([5]; 30 mg/kg po/qd)?
The value was 71%*.

And the “tumor response, single agent” value ([5]; CTG-0192, also after dosing discontinued (day 34))?
Its value is “significant TGI/tumor stasis was maintained even after dosing was discontinued”.
